{
  "source": "paper PMC13393665",
  "about": "“Structure-based virtual screening identifies potential endogenous ligands of the human bitter taste receptor TAS2R46” (The Journal of Biological Chemistry, 2026)",
  "assay_in_all_cases": "Clytin II luminescence calcium assay, HEK293",
  "assay_type_in_all_cases": "cell-based",
  "key": {"[1]": {"biological_target": "T1, TAS2R46 (hTAS2R46) (Homo sapiens, UniProt P59540)", "T1 construct": "full-length TAS2R46 with first 45 amino acids of SST3 fused at N-terminus; pEF-DEST51; transient in HEK293 with G-alpha16-gust44 and mitochondrial Clytin II", "T1 sequence (P59540 1-309)": "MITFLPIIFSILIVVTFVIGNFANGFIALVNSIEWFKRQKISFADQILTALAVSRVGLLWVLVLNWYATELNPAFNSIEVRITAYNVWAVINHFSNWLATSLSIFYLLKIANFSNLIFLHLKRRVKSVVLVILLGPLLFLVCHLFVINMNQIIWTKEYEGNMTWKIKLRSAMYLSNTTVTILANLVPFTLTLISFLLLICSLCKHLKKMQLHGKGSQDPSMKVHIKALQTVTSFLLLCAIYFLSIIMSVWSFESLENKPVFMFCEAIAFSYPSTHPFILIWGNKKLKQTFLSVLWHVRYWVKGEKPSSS", "details": "agonist; G-alpha16-gust44 co-expressed; HBSS, 10 mM HEPES pH 7.4"}, "[2]": {"biological_target": "T1, TAS2R46 (hTAS2R46)"}, "[3]": {"biological_target": "T1, TAS2R46 (hTAS2R46)", "details": "agonist; G-alpha16-gust44 co-expressed; HBSS, 10 mM HEPES pH 7.4", "remark": "listed apart in the source"}},
  "note": "Like-named read-outs stand apart in the source and are kept apart here.",
  "data": [
    {"smiles": "C[C@]12CC[C@@H]3c4ccc(O)cc4CC[C@H]3[C@@H]1CCC2=O", "note": "[estrone]", "values": [
      {"measurement": "Clytin II luminescence calcium assay, HEK293", "setting": "[1]", "result": "All candidate compounds, except estrone, elicited concentration-dependent responses"}
    ]},
    {"smiles": "C[C@]12CC[C@H](O)CC1=CC[C@@H]1[C@@H]2CC[C@]2(C)C(=O)CC[C@@H]12", "note": "[dehydroepiandrosterone]", "values": [
      {"measurement": "EC50", "setting": "[2]; read-out: EC50", "result": 14.9, "unit": "µM"}
    ]},
    {"smiles": "C[C@]12C[C@H](O)[C@H]3[C@@H](CCC4=CC(=O)CC[C@@]43C)[C@@H]1CC[C@@H]2C(=O)CO", "note": "[corticosterone]", "values": [
      {"measurement": "threshold", "setting": "[3]", "result": "cortisol and corticosterone showed lower potency than their metabolic intermediates, deoxycorticosterone and cortexolone, respectively"}
    ]},
    {"smiles": "CC(=O)[C@@]1(O)CC[C@H]2[C@@H]3CCC4=CC(=O)CC[C@]4(C)[C@H]3CC[C@@]21C", "note": "[17-hydroxyprogesterone]", "values": [
      {"measurement": "EC50", "setting": "[2]; read-out: EC50", "result": 3.8, "unit": "µM"}
    ]},
    {"smiles": "C[C@]12CCC(=O)C[C@@H]1CC[C@@H]1[C@@H]2CC[C@]2(C)[C@@H](O)CC[C@@H]12", "note": "[dihydrotestosterone]", "values": [
      {"measurement": "threshold", "setting": "[3]", "result": "All candidate compounds, except estrone, elicited concentration-dependent responses in TAS2R46-expressing HEK293 cells"}
    ]},
    {"smiles": "C[C@]12CCC(=O)C=C1CC[C@@H]1[C@@H]2[C@@H](O)C[C@@]2(C)[C@H]1CC[C@]2(O)C(=O)CO", "note": "[cortisol]", "values": [
      {"measurement": "threshold", "setting": "[3]", "result": "cortisol and corticosterone showed lower potency than their metabolic intermediates, deoxycorticosterone and cortexolone, respectively"}
    ]},
    {"smiles": "C[C@]12CC[C@H]3[C@@H](CCC4=CC(=O)CC[C@@]43C)[C@@H]1CC[C@@H]2C(=O)CO", "note": "[deoxycorticosterone]", "values": [
      {"measurement": "threshold", "setting": "[3]", "result": "cortisol and corticosterone showed lower potency than their metabolic intermediates, deoxycorticosterone and cortexolone, respectively"}
    ]},
    {"smiles": "C[C@]12CC[C@H]3[C@@H](CCC4=CC(=O)CC[C@@]43C)[C@@H]1CC[C@@H]2O", "note": "[testosterone]", "values": [
      {"measurement": "EC50", "setting": "[2]", "result": 11.7, "unit": "µM"}
    ]},
    {"smiles": "C[C@]12CCC(=O)C=C1CC[C@@H]1[C@@H]2CC[C@@]2(C)[C@H]1CC[C@]2(O)C(=O)CO", "note": "[cortexolone]", "values": [
      {"measurement": "threshold", "setting": "[3]", "result": "cortisol and corticosterone showed lower potency than their metabolic intermediates, deoxycorticosterone and cortexolone, respectively"}
    ]},
    {"smiles": "CC(=O)[C@H]1CC[C@H]2[C@@H]3CCC4=CC(=O)CC[C@]4(C)[C@H]3CC[C@]12C", "note": "[progesterone]", "values": [
      {"measurement": "EC50", "setting": "[2]; read-out: EC50", "result": 7.9, "unit": "µM"}
    ]},
    {"smiles": "C[C@]12CCC(=O)C=C1CC[C@@H]1[C@@H]2CC[C@]2(C)C(=O)CC[C@@H]12", "note": "[androstenedione]", "values": [
      {"measurement": "threshold", "setting": "[3]", "result": "All candidate compounds, except estrone, elicited concentration-dependent responses in TAS2R46-expressing HEK293 cells"}
    ]}
  ]
}
